Results published in patent publication US8063072B2 (Roche Palo Alto LLC, priority 2009, dated 2011).
pIC50: −log10 of the molar value.

Columns and labels:
[1] = test system: genotype 1b replicon in HCV replicon cells (2209-23); assay: HCV replicon assay (Renilla luciferase reporter); format: cell-based, HCV genotype 1b; conditions: Hepatitis C virus, 72 h; cell line 2209-23, three days incubation, luciferase readout
[2] = target: T1, HCV polymerase (NS5B570n-Con1) (Hepatitis C virus genotype 1b, UniProt Q9WMX2); assay: HCV NS5B RNA polymerase activity; format: biochemical, HCV Con1 strain
T1 construct: contains a 21 amino acid deletion at the C-terminus relative to the full-length HCV polymerase; 6-histidine (His6) (N); made in house; host or cells: E. coli BL21(DE) pLysS, plasmid pET17b
Experimental: The enzymatic activity of HCV polymerase (NS5B570n-Con1) was measured as the incorporation of radiolabeled nucleotide monophosphates into acid insoluble RNA products. Unincorporated radiolabeled substrate was removed by filtration and scintillant was added to the washed and dried filter plate containing radiolabeled RNA product. The amount of RNA product generated by NS5B570-Con1 at the end of the reaction was directly proportional to the amount of light emitted by the scintillant.
The N-terminal 6-histidine tagged HCV polymerase, derived from HCV Con1 strain, genotype 1b (NS5B570n-Con1) contains a 21 amino acid deletion at the C-terminus relative to the full-length HCV polymerase and was purified from E. coli strain BL21(DE) pLysS. The construct, containing the coding sequence of HCV NS5B Con1 (GenBank accession number AJ242654) was inserted into the plasmid construct pET17b, downstream of a T7 promoter expression cassette and transformed into E. coli. A single colony was grown overnight as a starter culture and later used inoculate 10 L of LB media supplemented with 100 μg/mL ampicillin at 37° C. Protein expression was induced by the addition of 0.25 mM isopropyl-β-D-thiogalactopyranoside (IPTG) when optical density at […] of the culture was between 0.6 and 0.8 and cells were harvested after 16 to 18 h at 30° C. NS5B570n-Con1 was purified to homogeneity using a three-step protocol including subsequent column chromatography on Ni-NTA, SP-Sepharose HP and Superdex 75 resins.
Each 50 μL enzymatic reaction contained 20 nM RNA template derived from the complementary sequence of the Internal Ribosome Entry Site (cIRES), 20 nM NS5B570n-Con1 enzyme, 0.5 μCi of tritiated UTP (Perkin Elmer catalog no. TRK-412; specific activity: 30 to 60 Ci/mmol; stock solution concentration from 7.5×10^-5 M to 20.6×10^-6 M), 1 μM each ATP, CTP, and GTP, 40 mM Tris-HCl pH 8.0, 40 mM NaCl, 4 mM DTT (dithiothreitol), 4 mM MgCl2, and 5 μl of compound serial diluted in DMSO. Reaction mixtures were assembled in 96-well filter plates (cat #MADVNOB, Millipore Co.) and incubated for 2 h at 30° C. Reactions were stopped by addition of 10% final (v/v) trichloroacetic acid and incubated for 40 min at 4° C. Reactions were filtered, washed with 8 reaction volumes of 10% (v/v) trichloroacetic acetic acid, 4 reaction volumes of 70% (v/v) ethanol, air dried, and 25 μl of scintillant (Microscint 20, Perkin-Elmer) was added to each reaction well.
The amount of light emitted from the scintillant was converted to counts per minute (CPM) on a Topcount® plate reader (Perkin-Elmer, Energy Range: Low, Efficiency Mode: Normal, Count Time: 1 min, Background Subtract: none, Cross talk reduction: Off).
Data was analyzed in Excel® (Microsoft) and ActivityBase® (Idbs®). The reaction in the absence of enzyme was used to determine the background signal, which was subtracted from the enzymatic reactions. Positive control reactions were performed in the absence of compound, from which the background corrected activity was set as 100% polymerase activity. All data was expressed as a percentage of the positive control. The compound concentration at which the enzyme-catalyzed rate of RNA synthesis was reduced by 50% (IC50) was calculated by fitting equation (i) to the data where“Y”
[formula] corresponds to the relative enzyme activity (in %), “% Min” is the residual relative activity at saturating compound concentration, “% Max” is the relative maximum enzymatic activity, “X” corresponds to the compound concentration, and “S” is the Hill coefficient (or slope).

in vitro = conditions: human
HCV = conditions: cited from earlier work

| SMILES | melting point [°C] | pIC50 [1] | pIC50 [2] | CC50 (in vitro) [nM] | effect on serum levels of HCV-RNA (HCV; monotherapy / sole treatment) | patients with serum amino transferase levels reduced to normal (HCV; monotherapy) [%] |
| --- | --- | --- | --- | --- | --- | --- |
| CC(C)(C)c1cc(CCc2ccc(NS(C)(=O)=O)cc2)c(O)c(-c2ccc[nH]c2=O)n1 [Compound I-3, N-{4-[2-(6-tert-Butyl-3-hydroxy-2′-oxo-1′,2′-dihydro-[2,3′]bipyridinyl-4-yl)-ethyl]-phenyl}-methanesulfonamide] | 123 to 125 | 6.25 | 7.57 |  |  |  |
| CC(C)(C)c1cc(/C=C/c2ccc(NS(C)(=O)=O)cc2)cc(-c2ccc[nH]c2=O)n1 [Compound I-1] | 258 to 260 | 6.97 | 8.40 | 15100 |  |  |
| CC(C)(C)c1cc(C(=O)N[C@H]2CC[C@H](NS(C)(=O)=O)CC2)c(C#N)c(-c2ccc[nH]c2=O)n1 [Compound I-5, 6-tert-Butyl-3-cyano-2′-oxo-1′,2′-dihydro-[2,3′]bipyridinyl-4-carboxylic acid (4-methanesulfonylamino-cyclohexyl)-amide] | 208 to 210 |  | 7.38 |  |  |  |
| CC(C)(C)c1cc(/C=C/c2ccc(NS(C)(=O)=O)cc2)c(O)c(-c2ccc[nH]c2=O)n1 [Compound I-2, N-{4-[(E)-2-(6-tert-Butyl-3-hydroxy-2′-oxo-1′,2′-dihydro-[2,3′]bipyridinyl-4-yl)-vinyl]-phenyl}-methanesulfonamide] | 178 to 180 |  | 6.75 |  |  |  |
| NC(=O)c1ncn([C@@H]2O[C@H](CO)[C@@H](O)[C@H]2O)n1 [ribavirin, 1-((2R,3R,4S,5R)-3,4-Dihydroxy-5-hydroxymethyl-tetrahydro-furan-2-yl)-1H-[1,2,4]triazole-3-carboxylic acid amide] |  |  |  |  | does not lower serum levels of HCV-RNA | 40 |
| CC(C)(C)c1nc(/C=C/c2ccc(NS(C)(=O)=O)cc2)cc(-c2ccc[nH]c2=O)n1 [Compound I-7, N-(4-{(E)-2-[2-tert-Butyl-6-(2-oxo-1,2-dihydro-pyridin-3-yl)-pyrimidin-4-yl]-vinyl}-phenyl)-methanesulfonamide] | 271 to 273 |  | 8.00 |  |  |  |
| CC(C)(C)c1cc(CCc2ccc(NS(C)(=O)=O)cc2)c(C#N)c(-c2ccc[nH]c2=O)n1 [Compound I-6, N-{4-[2-(6-tert-Butyl-3-cyano-2′-oxo-1′,2′-dihydro-[2,3′]bipyridinyl-4-yl)-ethyl]-phenyl}-methanesulfonamide] |  |  | 8.40 |  |  |  |
| COC(=O)c1cc(C(C)(C)C)nc(-c2ccc[nH]c2=O)c1C#N [Compound I-4, 6-tert-Butyl-3-cyano-2′-oxo-1′,2′-dihydro-[2,3′]bipyridinyl-4-carboxylic acid methyl ester] | 228 to 230 |  | 5.25 |  |  |  |
